“Also recorded” adds a separate entry of the source. Read-outs that look alike come from different tables or passages of the source. Blank lines part the entries; values can stand above or below the molecule they belong to.
Experiments:
human preadipocytes = assay: Adipocyte differentiation of primary human pre-adipocyte cultures (oil red-O); format: cell-based; details: for EC50: Homo sapiens, Adipocyte, human adipocyte differentiation in presence of insulin and dexamethasone
Method: Evaluation of the capacity to induce differentiation of primary human pre-adipocyte cultures to adipocytes.
The capacity of Compound VI to induce adipocyte differentiation of primary human pre-adipocyte cultures was evaluated and compared directly to Troglitazone®.
Human subcutaneous preadipocytes were isolated from adipose tissue obtained by liposuction surgery. Preadipocytes were inoculated at high density in preadipocyte medium (DME/F-10, 1:1, (v/v) containing 10% fetal calf serum). Cells were kept in preadipocytic medium overnight for attachment. […] The basal medium, which was used as the negative control, contained DME/F-10, biotin (33 μM), pantothenate (17 μM), insulin (100 nM), and dexamethasone (1 μM). The culture was maintained for 14 days with the compound treatment during the first five days. At the end of the culture, cells were fixed in 5% formalin and stained with oil red-O dye. The dye was extracted by isopropanol and quantitated by measuring the optical density at 500 nm.

LTD4 receptor [1] = molecular target: T1, LTD4 receptor (Homo sapiens, UniProt Q9Y271); assay: LTD4 receptor binding in THP-1 cells; details: for Kb: THP-1 cells, read-out: LTD4 Binding (Kb for binding of compound to the LTD4 receptor)
T1 construct: endogenous in cells
T1 sequence (Q9Y271 1-337): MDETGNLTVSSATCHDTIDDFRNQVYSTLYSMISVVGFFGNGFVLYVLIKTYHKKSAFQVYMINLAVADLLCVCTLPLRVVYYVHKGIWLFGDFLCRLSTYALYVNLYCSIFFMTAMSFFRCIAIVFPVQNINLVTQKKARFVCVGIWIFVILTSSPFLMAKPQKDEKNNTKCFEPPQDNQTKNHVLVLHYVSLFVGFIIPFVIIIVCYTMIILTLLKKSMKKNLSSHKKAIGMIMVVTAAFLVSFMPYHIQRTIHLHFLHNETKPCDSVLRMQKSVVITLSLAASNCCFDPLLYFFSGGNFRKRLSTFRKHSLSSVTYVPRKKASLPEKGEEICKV

LTD4 receptor [2] = molecular target: T2, LTD4 receptor (Cavia porcellus, UniProt Q2NNR5); assay: LTD4 binding, guinea pig receptor; details: read-out: Kd, antagonist of the guinea pig LTD4 receptor
T2 sequence (Q2NNR5 1-340): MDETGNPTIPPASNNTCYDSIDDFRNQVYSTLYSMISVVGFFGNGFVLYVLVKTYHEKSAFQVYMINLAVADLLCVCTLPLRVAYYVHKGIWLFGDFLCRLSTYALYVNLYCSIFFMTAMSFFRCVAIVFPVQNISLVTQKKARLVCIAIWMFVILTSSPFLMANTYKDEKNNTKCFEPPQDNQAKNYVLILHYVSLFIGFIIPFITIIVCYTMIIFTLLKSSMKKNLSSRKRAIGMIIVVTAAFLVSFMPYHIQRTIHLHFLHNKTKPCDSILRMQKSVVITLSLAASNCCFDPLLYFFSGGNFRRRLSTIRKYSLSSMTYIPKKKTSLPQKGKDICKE

db/db mice = assay: Oral (in-feed) efficacy in db/db mice, genetic model of type II diabetes; format: in vivo, mouse
Method: An in-feed study in this genetic model of type II diabetes was performed. […] The compound of formula VI and Troglitazone® were studied in a genetic model of diabetes (db/db mice). A total of 70 female db/db mice (C57Bl/Ks db+/+; Jackson Labs, Maine), 3 months of age, received either meal chow only (rodent chow # 5001), 50 or 150 mg/kg/day of the compound of formula VI and 50 or 150 mg/kg/day of Troglitazone® mixed with the food. Six animals were sacrificed on Day 0 to obtain baseline values, the remaining 64 animals were randomly distributed into 5 groups. On days 0, 8, 12 and 16 whole blood samples were taken via the tail vein and blood glucose was determined (in duplicate) using the One Touch® gluco-meter. On Day 16, animals were anesthetized using pentobarbital, blood was drawn into EDTA tubes and the following organs were removed: heart, liver, brain, white and brown adipose tissue and the tibia. Plasma was prepared and kept frozen until samples were analyzed for glucose, free fatty acids, insulin and triglycerides. [table] Plasma was analyzed for glucose, triglycerides, free fatty acids and insulin. The latter two methods were slightly modified to use smaller amounts of plasma. Glucose Analysis. Plasma glucose was measured with a Sigma Chemicals Diagnostic kit (#315-500). Triglyceride Analysis. Plasma triglycerides was measured with a Sigma Chemicals Diagnostic kit (#339-500P). Insulin Analysis. Plasma insulin was measured using a radioimmunoassay (RIA) kit from Linco Research Inc. (#RI-13K). This kit was modified slightly using 10 μl of plasma. This kit utilizes an antibody made specifically against rat insulin. The cross-reactivity of this antibody with mouse insulin is 100 percent. Free Fatty Acid Analysis. Plasma free fatty acids were measured using a kit obtained from Wako Chemicals Inc. (NEFA-C; #994-75409). This kit utilizes an in vitro enzymatic colorimetric method for the quantitation of non-esterified fatty acids in serum or plasma. This method relies upon the acylation of coenzyme A by the fatty acids in the presence of added acyl-CoA synthetase. This method was modified slightly to utilize 5 μl of plasma and was performed in a 96-well format (M. Johnson & J. Peters, J. Animal Science 71:753-756, 1993).

PPAR-γ = molecular target: T3, PPAR-γ (Homo sapiens, UniProt P37231); assay: PPAR-γ ligand receptor binding; details: initial results
T3 sequence (P37231 1-505): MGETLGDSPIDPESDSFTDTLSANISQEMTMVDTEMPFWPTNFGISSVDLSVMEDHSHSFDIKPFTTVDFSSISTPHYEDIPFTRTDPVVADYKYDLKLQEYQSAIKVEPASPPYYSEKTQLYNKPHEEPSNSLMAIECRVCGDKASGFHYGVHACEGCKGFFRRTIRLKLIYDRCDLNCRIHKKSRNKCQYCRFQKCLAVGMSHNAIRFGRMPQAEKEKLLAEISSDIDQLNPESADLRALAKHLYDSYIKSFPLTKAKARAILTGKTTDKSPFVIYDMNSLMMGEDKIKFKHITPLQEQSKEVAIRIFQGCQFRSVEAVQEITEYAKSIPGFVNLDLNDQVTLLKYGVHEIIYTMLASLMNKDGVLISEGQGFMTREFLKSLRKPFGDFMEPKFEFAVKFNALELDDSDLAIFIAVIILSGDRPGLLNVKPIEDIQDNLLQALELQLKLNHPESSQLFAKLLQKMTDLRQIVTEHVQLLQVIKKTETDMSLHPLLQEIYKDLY

Compound: N#Cc1ccc(COc2cccc(OCc3ccc4ccccc4n3)c2)cc1 [Example 26, 4-(3-(2quinolinylmethyloxy)phenoxy-methyl)benzonitrile]
melting point: 112.5 °C

Compound: N#Cc1cccc(OCc2cccc(OCc3ccc4ccccc4n3)c2)c1 [Example 7, 3-[3-(2-quinolinylmethyloxy)benzyloxy]benzonitrile]
melting point: 86 to 87 °C

Compound: COC(=O)c1cccc(COc2cccc(OCc3ccc4ccccc4n3)c2)c1 [Example 19, methyl 3-(3-(2-quinolinylmethyloxy)phenoxymethyl)benzoate]
melting point: 93 to 94 °C

Compound: COC(=O)c1ccc(OCc2cccc(OCc3ccc4ccccc4n3)c2)c(OC)c1 [Example 14, methyl 3-methoxy-4-(3-(2quinolinylmethyloxy)benzyloxy)-benzoate]
melting point: 100 to 101 °C

Compound: c1cc(COc2cccc(-c3nnn[nH]3)c2)cc(OCc2ccc3ccccc3n2)c1 [Example 10, 5-[3-(3-(2-quinolinylmethyloxy)benzyloxy)phenyl]tetrazole]
melting point: 169 to 172 °C

Compound: COc1cc(C(=O)O)ccc1OCc1cccc(OCc2ccc3ccccc3n2)c1 [Example 15, 3-methoxy-4-(3-(2-quinolinylmethyloxy)benzyloxy)benzoic acid]
melting point: 188 to 190 °C

Compound: c1ccc2nc(COc3ccc(COc4ccc(Cc5nnn[nH]5)cc4)cc3)ccc2c1 [Example 12, 5-[4(4-(2-quinolinylmethyloxy)benzyloxy)benzyl]tetrazole]
melting point: 179 to 181 °C

Compound: O=C(O)c1cccc(COc2cccc(OCc3ccc4ccccc4n3)c2)c1 [Example 20, 3-(3-(2-quinolinylmethyloxy)phenoxymethyl)benzoic acid]
melting point: 149 to 151 °C

Further lines, with some results ahead:

EC50 (human preadipocytes; serum free medium): > 3 µM
Kb (LTD4 receptor [1]): > 10 µM
Compound: Cc1c(C)c2c(c(C)c1O)CCC(C)(COc1ccc(CC3SC(=O)NC3=O)cc1)O2 (stereo not shown) [Troglitazone ®, Troglitazone, reference compound]

melting point: 131 to 132 °C
Compound: c1cc(COc2ccc(OCc3ccc4ccccc4n3)cc2)cc(OCc2nnn[nH]2)c1 [Example 32, 5-(3-(4-(2-quinolinylmethyloxy)phenoxymethyl)phenoxymethyl)tetrazole]

melting point: 210 to 213 °C
Compound: c1ccc2nc(COc3ccc(COc4ccc(-c5nnn[nH]5)cc4)cc3)ccc2c1 [Example 11, 5-[4-(4-(2-quinolinylmethyloxy)benzyloxy)phenyl]tetrazole]

EC50 (human preadipocytes; in serum): 1 to 3 µM
EC50 (human preadipocytes; serum free medium): 0.1 to 0.3 µM
Kd (LTD4 receptor [2]): 0.003 µM
binding to the LTD4 receptor (in words) (LTD4 receptor [1]): binds tightly
Kb (LTD4 receptor [1]; in serum): 0.088 µM
Kb (LTD4 receptor [1]): 0.038 µM
Compound: c1ccc(Cc2nn[nH]n2)c(COc2ccc(OCc3ccc4ccccc4n3)cc2)c1 [Compound VI, 5-[2-(4-(2-quinolinylmethoxy)phenoxymethyl)benzyl]tetrazole]
activity in the differentiation assay (human preadipocytes; human preadipocytes): active
potency in the differentiation assay relative to Troglitazone (human preadipocytes; human preadipocytes): better potency than Troglitazone®
lowering plasma glucose (db/db mice; db/db mice, 50 or 150 mg/kg/day mixed with the food, Day 16, FIG. 3A): effective
lowering plasma free fatty acids (db/db mice; db/db mice, 50 or 150 mg/kg/day mixed with the food, Day 16, FIG. 3B): effective
lowering plasma triglycerides (db/db mice; db/db mice, 50 or 150 mg/kg/day mixed with the food, Day 16, FIG. 3C): effective
lowering plasma insulin (db/db mice; db/db mice, 50 or 150 mg/kg/day mixed with the food, Day 16, FIG. 3D): effective
efficacy relative to Troglitazone (db/db mice; db/db mice, same doses, listed as compound of formula VI): significantly better efficacy; also recorded: more efficacious than Troglitazone®
potency relative to Troglitazone in lowering glucose (db/db mice; db/db mouse, in-feed administration, FIG. 4): at least three times the potency of Troglitazone®
potency as PPAR-γ ligand receptor binder relative to Troglitazone (PPAR-γ): more potent PPAR-γ ligand receptor binder than Troglitazone®

melting point: 91 °C (dec.)
Compound: c1cc(OCc2ccc(-c3nnn[nH]3)cc2)cc(OCc2ccc3ccccc3n2)c1 [Example 27, 5-(4-(3-(2quinolinylmethyloxy)phenoxy-methyl)phenyl)tetrazole]
